Experimental data as given in patent US5747239A, “Synthetic peptides specific for the detection of antibodies to HCV, diagnosis of HCV infection and preventions thereof as vaccines” (United Biomedical, Inc., priority 1994, dated 1998).

Assays:
Assay type in all cases: binding, human
antibodies to HCV [1] = assay: NS-1 peptide ELISA, Panel II (asymptomatic individuals, mainland China and Taiwan); conditions: NS-1 peptides; Panel II (CH1-CH7); relative to pep1 (231C)
Method: Wells of 96-well plates were coated for 1 hour at 37° C. with each of the 16 peptides (designated as peptides 241A-C, 231A-E, 232A-D, 233C, 234A-C), synthesized according to sequences derived from the NS-1 region (Table 3A), at 5 ug/mL at 100 uL per well in 10 mM NaHCO3 buffer, pH 9.5. Each peptide's immunoreactivity was measured as previously described (see Example 1), using an 8 member serum panel (Panel I).
A panel of serum samples from individuals coming from regions in which hepatitis C is endemic, namely mainland China and Taiwan, were tested for evidence of reactivity to these NS-1 protein derived peptides. Twenty-four samples were chosen from individuals who had no recognizable symptoms of non-A, non-B hepatitis and for whom the peptide based HCV EIA, Format C, as described in Example 11, was nonreactive. Seven of the 24 samples (29%) were reactive against one or more peptides from the NS-1 region, indicative of the presence of long term protective antibodies responsive to this region. This 7 member panel (designated as Panel II, CH1-CH7) was used to further characterize these NS-1 peptides for their immunoreactivity.
The peptide with the greatest reactivity against the serum Panel II again was pep1 (designated 231c in Table 3A). Using this peptide as a standard, the relative immunoreactivity for each of the other 15 peptides from the NS-1 region are calculated in Table 3A.

antibodies to HCV [2] = assay: NS-1 peptide ELISA, early and late HCV infection panels
Method: In addition, all sixteen NS-1 peptides were tested on panels of samples representing HCV-antibody positive donors (n=9) in an early stage of infection, namely plasmapheresis donors with the first occurrence of an ALT level >100 i.u./L, and those asymptomatic individuals (n=14) disqualified from blood donation because of a reactive result for anti-HIV or HBc, for whom the anti-HCV result probably represents a past infection.
These select panels were chosen from hundreds of HCV positive sera for their ability to recognize NS-1 antigens. For both groups, peptide designated as 232A (pep2) had the greatest immunoreactivity. Using pep2 as a standard, the relative immunoreactivity of each peptide was calculated (Table 3C).

antibodies to HCV [3] = assay: Envelope/NS-1 peptide ELISA, anti-HCV positive plasmapheresis donors with elevated ALT (Panel III); conditions: envelope/NS-1 peptides; Panel III (17 samples); peptide 254B as a standard
Method: To select a panel of samples with reactivity to peptides from the envelope/NS-1 region, 97 such samples from anti-HCV positive plasmapheresis donors with elevated ALT levels were tested with peptide 254B. […] 17 samples with the greatest reactivity with peptide 254B were chosen to form a third panel (Panel III) to screen for the immunoreactivity of the other 20 peptides from the envelope/NS-1 region. The individual absorbance values of each of the 17 samples on the four peptides with the greatest reactivity, i.e. 255C (pep7), 254B (pep8), 247B (pep9), and 246D (pep10), are listed in Table 8b.

antibodies to HCV [4] = assay: Peptide ELISA for relative immunoreactivity, 8 member HCV serum panel (Panel I)
Method: As an example to illustrate how relative (%) immunoreactivity for HCV synthetic peptides is measured, wells of 96-well plates are coated for 1 hour at 37° C., with each of the following peptides: IIH, V, VIIIE and pep11 at 5 ug/mL at 100 uL per well in 10 mM NaHCO3 buffer, pH 9.5. The peptide coated wells were then incubated with 250 uL of 3% by weight of gelatin in PBS in 37° C. for 1 hour to block non-specificprotein binding sites, followed by three washes with PBS containing 0.05% by volume of TWEEN 20 and then dried. The test specimens containing a panel of eight well-characterized HCV antibody positive patient sera were diluted with PBS containing 20% by volume normal goat serum, 1% by weight gelatin and 0.05% by volume TWEEN 20 at dilutions of 1:20 volume to volume, respectively. 200 uL of the diluted specimens were added to each of the wells and allowed to react for 15 minutes at 37° C.
The wells were then washed six times with 0.05% by volume TWEEN 20 in PBS in order to remove unbound antibodies. Horseradish peroxidase conjugated goat anti-human IgG was used as a second antibody tracer to bind with the HCV antibody-peptide antigen complex formed in positive wells. 100 uL of peroxidase labeled goat anti-human IgG at a dilution of 1:1800 in 1% by volume normal goat serum, 0.05% by volume TWEEN 20 in PBS was added to each well and incubated at 37° C. for another 15 minutes.
The wells were washed six times with 0.05% by volume TWEEN 20 PBS to remove unbound antibody and reacted with 100 uL of the substrate mixture containing 0.04% by weight orthophenylenediamine (OPD) and 0.12% by volume hydrogen peroxide in sodium citrate buffer, pH 5.0.
This substrate mixture was used to detect the peroxidase label by forming a colored product. Reactions were stopped by the addition of 100 uL of 1.0M H2 SO4 and the A492 mm measured. Results of relative immunoreactivity for each of the peptides obtained from this study are shown in Table A using peptide II H as the reference.

[5] = Early HCV Infection panel, n = 9
[6] = Late HCV Infection panel, n = 14
[7] = NS-5 peptides (Table 12), Panel I, pep11 as a standard
[8] = capsid peptides, Panel I, relative to VIIIE, coated at 5, 1 and 0.2 μg/mL
[9] = Arima clone 1 peptides, relative to peptide VIIIE

## ANGSGPDQRPYCWHYPPKPCGIVPAKSVCGPVYC [231B]
Antibodies to HCV [1]
  % IP: 96.4%
Antibodies to HCV [2]; [5]
  % Relative Immunoreactivity in comparison to Pep2 (232A): 30.9%
Antibodies to HCV [2]; [6]
  % Relative Immunoreactivity in comparison to Pep2 (232A): 46.7%

## CGSVFLIGQLFTFSPRRHWTTQGCNCSIYPGHITGHRMAWDMMMNWSPTA [254C]
Antibodies to HCV [3]
  % Relative Immunoreactivity: 16.7%

## CNESLNTGWLAGLIYQHKFNSSGCPERLASC [246B]
Antibodies to HCV [3]
  % Relative Immunoreactivity: 19.8%

## CPERLASCRPLTDFDQGWGPISYANGSGPDQRPYCWHYPPKPCGIVPAKSVC [241C]
Antibodies to HCV [1]
  % IP: 93.6%
Antibodies to HCV [2]; [5]
  % Relative Immunoreactivity in comparison to Pep2 (232A): 44.7%
Antibodies to HCV [2]; [6]
  % Relative Immunoreactivity in comparison to Pep2 (232A): 84.7%

## CQVPSPEFFTELDGVRLHRFAPPCKPLLREEVSFRVGLHEYPVGSQLPCEPEPD [311C]
Antibodies to HCV [4]; [7]
  % IP: 16.8%

## CVREGNVSRCWVAMTPTVATRDGKLPATQLRRHIDLLVGSATLC [244B]
Antibodies to HCV [3]
  % Relative Immunoreactivity: 5.8%

## CWVAMTPIVATRDGKLPATQLRRHIDLLVGSATLC [244A]
Antibodies to HCV [3]
  % Relative Immunoreactivity: 3.8%

## FTDNSSPPVVPQSFQVAHLHAPTGSGKSTKPAAYA [278B]
Antibodies to HCV [4]; NS-3 peptides (Table 4A), Panel I, relative to pep3 (279A)
  % IP: 1.4%

## GPRLGVRATRKTSERSQPRGRR [VIIIA]
Antibodies to HCV [4]; [8]
  % Relative Immunoreactivity: 32.7%

## IPKVRRPEGRTWAQPGYPWPLYGNEGCGWAGWLLSPRGSRPSWGPTDPRRRSRNLG [IXD]
Antibodies to HCV [4]; [8]
  % Relative Immunoreactivity: 58.9%

## KEKEKTATNNPGKNKKPRVGRIKNWNREGRKDAYQIRKRR [40 mer, reference compound]
Antibodies to HCV [4]; [9]
  % Relative Immunoreactivity: 21.1%

## KKQRRYKEKEKTATNNPGKNKKPRVGRIKNWNREGRKDAYQIRKRR (NDTHKKQRRYKEKEKTATNNPGKNKKPRVGRIKNWNREGRKDAYQIRKRR) [50 mer, reference compound]
Antibodies to HCV [4]; [9]
  % Relative Immunoreactivity: 17.8%

## KQNIQLINTNGSWHINSTALNCNESLNTGWLAGLIYQHKFNSSGCPERLASC [246E]
Antibodies to HCV [3]
  % Relative Immunoreactivity: 10.5%

## LRRLHQWISSECTTPCSGSWLRDIWDWICEVLSDFKTWLKAKLMPQL [314C]
Antibodies to HCV [4]; [7]
  % IP: 14.2%

## LWRVSAEEYVEIRQVGDFHYVIGMTTDNLKCPCQVPSP [312C]
Antibodies to HCV [4]; [7]
  % IP: 40.4%
